Experimental data taken from ChEMBL document CHEMBL3885881, “DrugMatrix”.

Organism: Rattus norvegicus
Experiment: DrugMatrix - Regimen: Daily Repeat
Type: toxicity, organism-based, Sprague-Dawley
Set-up: regimen Daily Repeat, gender Male, age 6-8 weeks
Conditions: in vivo, po, route oral GAVAGE, vehicle 100 % WATER; for ABSOLUTE BASOPHIL / ABSOLUTE EOSINOPHIL / ABSOLUTE LYMPHOCYTE / ABSOLUTE MONOCYTE / ABSOLUTE SEGMENTED NEUTROPHIL / BASOPHIL / EOSINOPHIL / ERYTHROCYTE COUNT / HEMATOCRIT / HEMOGLOBIN / LEUKOCYTE COUNT / LYMPHOCYTE / MEAN CORPUSCULAR HEMOGLOBIN / MEAN CORPUSCULAR HEMOGLOBIN CONCENTRATION / MEAN CORPUSCULAR VOLUME / MONOCYTE / NEUTROPHIL / NUCLEATED RED BLOOD CELLS / PLATELET COUNT: tissue Blood; for ALANINE AMINOTRANSFERASE / ALBUMIN / ALKALINE PHOSPHATASE / ASPARTATE AMINOTRANSFERASE / BLOOD UREA NITROGEN / CARBON DIOXIDE / CHLORIDE / CHOLESTEROL / CREATINE PHOSPHOKINASE / CREATININE / GLUCOSE / LACTATE DEHYDROGENASE / LIPASE / PHOSPHORUS / POTASSIUM / SODIUM / TOTAL BILIRUBIN / TOTAL PROTEIN / URIC ACID: tissue Plasma
[1] = 120 mg/kg, 120 h, dose level Low, time 5 day
[2] = 1695 mg/kg, 72 h, dose level High, time 3 day
[3] = 1695 mg/kg, 120 h, dose level High, time 5 day

SMILES: Nc1ccc(S(=O)(=O)Nc2ccnn2-c2ccccc2)cc1 [SULFAPHENAZOLE]
- ABSOLUTE BASOPHIL [1]: 0 CELLS/uL
- ABSOLUTE EOSINOPHIL [1]: 0 CELLS/uL
- ABSOLUTE LYMPHOCYTE [1]: 12168 CELLS/uL
- ABSOLUTE MONOCYTE [1]: 171.33 CELLS/uL
- ABSOLUTE SEGMENTED NEUTROPHIL [1]: 1260.67 CELLS/uL
- BASOPHIL [1]: 0%
- EOSINOPHIL [1]: 0%
- ERYTHROCYTE COUNT [1]: 5.32 x10E6/uL
- HEMATOCRIT [1]: 32.93%
- HEMOGLOBIN [1]: 13.2 G/DL
- LEUKOCYTE COUNT [1]: 13.6 x10E3/uL
- LYMPHOCYTE [1]: 88.67%
- MEAN CORPUSCULAR HEMOGLOBIN [1]: 24.8 pg
- MEAN CORPUSCULAR HEMOGLOBIN CONCENTRATION [1]: 40.07 G/DL
- MEAN CORPUSCULAR VOLUME [1]: 61.87 fL
- MONOCYTE [1]: 1.33%
- NEUTROPHIL [1]: 10%
- NUCLEATED RED BLOOD CELLS [1]: 0 /100WBC
- PLATELET COUNT [1]: 1135.33 x10E3/uL
- ALANINE AMINOTRANSFERASE [1]: 44 u/L
- ALBUMIN [1]: 4.37 G/DL
- ALKALINE PHOSPHATASE [1]: 314.33 u/L
- ASPARTATE AMINOTRANSFERASE [1]: 85.33 u/L
- BLOOD UREA NITROGEN [1]: 17.67 mg/dL
- CARBON DIOXIDE [1]: 25 mmol/L
- CHLORIDE [1]: 101.67 MEQ/L
- CHOLESTEROL [1]: 55.33 mg/dL
- CREATINE PHOSPHOKINASE [1]: 560.67 u/L
- CREATININE [1]: 0.19 mg/dL
- GLUCOSE [1]: 147.33 mg/dL
- LACTATE DEHYDROGENASE [1]: 243.67 u/L
- LIPASE [1]: 10.67 u/L
- PHOSPHORUS [1]: 11.43 mg/dL
- POTASSIUM [1]: 6.3 MEQ/L
- SODIUM [1]: 141.23 MEQ/L
- TOTAL BILIRUBIN [1]: 0.17 mg/dL
- TOTAL PROTEIN [1]: 5.93 G/DL
- URIC ACID [1]: 1.83 mg/dL
- ABSOLUTE BASOPHIL [2]: 0 CELLS/uL
- ABSOLUTE EOSINOPHIL [2]: 148.67 CELLS/uL
- ABSOLUTE LYMPHOCYTE [2]: 12946.33 CELLS/uL
- ABSOLUTE MONOCYTE [2]: 179 CELLS/uL
- ABSOLUTE SEGMENTED NEUTROPHIL [2]: 1226 CELLS/uL
- BASOPHIL [2]: 0%
- EOSINOPHIL [2]: 1%
- ERYTHROCYTE COUNT [2]: 6.24 x10E6/uL
- HEMATOCRIT [2]: 37.43%
- HEMOGLOBIN [2]: 14.4 G/DL
- LEUKOCYTE COUNT [2]: 14.5 x10E3/uL
- LYMPHOCYTE [2]: 89.33%
- MEAN CORPUSCULAR HEMOGLOBIN [2]: 23.1 pg
- MEAN CORPUSCULAR HEMOGLOBIN CONCENTRATION [2]: 38.5 G/DL
- MEAN CORPUSCULAR VOLUME [2]: 60.03 fL
- MONOCYTE [2]: 1.33%
- NEUTROPHIL [2]: 8.33%
- NUCLEATED RED BLOOD CELLS [2]: 0.33 /100WBC
- PLATELET COUNT [2]: 1221 x10E3/uL
- ALANINE AMINOTRANSFERASE [2]: 93.67 u/L
- ALBUMIN [2]: 4.27 G/DL
- ALKALINE PHOSPHATASE [2]: 470.33 u/L
- ASPARTATE AMINOTRANSFERASE [2]: 97.33 u/L
- BLOOD UREA NITROGEN [2]: 20 mg/dL
- CARBON DIOXIDE [2]: 28.67 mmol/L
- CHLORIDE [2]: 98 MEQ/L
- CHOLESTEROL [2]: 66 mg/dL
- CREATINE PHOSPHOKINASE [2]: 349 u/L
- CREATININE [2]: 0.24 mg/dL
- GLUCOSE [2]: 138 mg/dL
- LACTATE DEHYDROGENASE [2]: 231 u/L
- LIPASE [2]: 12 u/L
- PHOSPHORUS [2]: 11.17 mg/dL
- POTASSIUM [2]: 6.38 MEQ/L
- SODIUM [2]: 138.87 MEQ/L
- TOTAL BILIRUBIN [2]: 0.17 mg/dL
- TOTAL PROTEIN [2]: 5.9 G/DL
- URIC ACID [2]: 1.43 mg/dL
- ABSOLUTE BASOPHIL [3]: 0 CELLS/uL
- ABSOLUTE EOSINOPHIL [3]: 0 CELLS/uL
- ABSOLUTE LYMPHOCYTE [3]: 12966.33 CELLS/uL
- ABSOLUTE MONOCYTE [3]: 311 CELLS/uL
- ABSOLUTE SEGMENTED NEUTROPHIL [3]: 1656 CELLS/uL
- BASOPHIL [3]: 0%
- EOSINOPHIL [3]: 0%
- ERYTHROCYTE COUNT [3]: 5.99 x10E6/uL
- HEMATOCRIT [3]: 35.5%
- HEMOGLOBIN [3]: 13.53 G/DL
- LEUKOCYTE COUNT [3]: 14.93 x10E3/uL
- LYMPHOCYTE [3]: 86.67%
- MEAN CORPUSCULAR HEMOGLOBIN [3]: 22.57 pg
- MEAN CORPUSCULAR HEMOGLOBIN CONCENTRATION [3]: 38.1 G/DL
- MEAN CORPUSCULAR VOLUME [3]: 59.27 fL
- MONOCYTE [3]: 2%
- NEUTROPHIL [3]: 11.33%
- NUCLEATED RED BLOOD CELLS [3]: 0 /100WBC
- PLATELET COUNT [3]: 1318 x10E3/uL
- ALANINE AMINOTRANSFERASE [3]: 117.33 u/L
- ALBUMIN [3]: 4.47 G/DL
- ALKALINE PHOSPHATASE [3]: 435.33 u/L
- ASPARTATE AMINOTRANSFERASE [3]: 99.67 u/L
- BLOOD UREA NITROGEN [3]: 16.33 mg/dL
- CARBON DIOXIDE [3]: 25 mmol/L
- CHLORIDE [3]: 99 MEQ/L
- CHOLESTEROL [3]: 48 mg/dL
- CREATINE PHOSPHOKINASE [3]: 444.33 u/L
- CREATININE [3]: 0.22 mg/dL
- GLUCOSE [3]: 150.33 mg/dL
- LACTATE DEHYDROGENASE [3]: 121.33 u/L
- LIPASE [3]: 12 u/L
- PHOSPHORUS [3]: 11.27 mg/dL
- POTASSIUM [3]: 5.55 MEQ/L
- SODIUM [3]: 141.73 MEQ/L
- TOTAL BILIRUBIN [3]: 0.23 mg/dL
- TOTAL PROTEIN [3]: 5.87 G/DL
- URIC ACID [3]: 1.37 mg/dL
